# Source: patent US7687508B2, “Cyclic derivatives as modulators of chemokine receptor activity” (Bristol-Myers Squibb Company, priority 2006, dated 2010)
# Legend:
# human CCR2 [1] = target: T1, human CCR2 (Homo sapiens, UniProt P41597); test: THP-1 binding (CCR2, 125I-human MCP-1 tracer); design: THP-1 human monocytic leukemic cell line, which expresses endogenous CCR2; endogenous in cells; host or cells: THP-1 human monocytic leukemia cells; settings: metabolite examples; THP-1 cells, 125I-MCP-1
# T1 sequence (P41597 1-360 isoform P41597-2): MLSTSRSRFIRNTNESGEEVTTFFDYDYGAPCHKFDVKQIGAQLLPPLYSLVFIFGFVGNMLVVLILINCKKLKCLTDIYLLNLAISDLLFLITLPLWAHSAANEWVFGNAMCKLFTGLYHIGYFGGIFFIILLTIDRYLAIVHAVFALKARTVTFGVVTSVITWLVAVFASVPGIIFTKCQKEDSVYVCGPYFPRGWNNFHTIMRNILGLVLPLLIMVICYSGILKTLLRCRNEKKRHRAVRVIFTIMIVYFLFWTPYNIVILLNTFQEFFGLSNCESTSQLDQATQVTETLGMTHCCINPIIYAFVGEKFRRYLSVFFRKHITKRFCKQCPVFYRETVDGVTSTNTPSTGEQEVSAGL
# Procedure: The human CCR2 binding assay was also established with the THP-1 human monocytic leukemic cell line, which expresses endogenous CCR2, using 125I-human MCP-1 as the tracer ligand. Radioligand competition binding assays were used for assessment of binding affinity of test compounds to the CCR2 receptor. For radioligand competition studies, 100 μl containing 2.5×10^5 THP-1 cells/well (in assay buffer containing 50 mM HEPES, pH7.4, 5 mM MgCl2, 1 mM CaCl2 and 0.5% BSA) were added to 96-well assay plates containing test compound in 3-fold serial dilution, with final concentrations ranging from […]. Subsequently, 50 μl ^125I-MCP-1 radioligand at a final concentration of 0.2 nM in assay buffer were added to the reaction. After a 90 minute incubation period at room temperature, the binding reaction was terminated by harvesting on GF/B filter plates (PerkinElmer Cat. No. 6005177) followed by washing with ice-cold wash buffer (50 mM HEPES, pH 7.4, 0.1% BSA, 0.5 M NaCl) to remove unbound ligand. After washing, the plate was dried for 45 minutes at 60° C. followed by addition of 40 μl MicroScint 20 scintillation fluid, sealed and analyzed by the Packard TopCount reader. […] The competition data was plotted as a percentage inhibition of radioligand specific bound in the absence of test compound (percent of total signal). After correcting for non-specific binding, IC50 values were determined.
# human CCR2 [2] = target: T1, human CCR2; test: Human peripheral blood mononuclear cell binding (CCR2 binding), 125I-human MCP-1 tracer; design: hPBMCs were isolated from human leukopak (Biological Specialty Inc.); endogenous in cells; host or cells: human peripheral blood mononuclear cells from leukopak (Biological Specialty Inc.); settings: metabolite examples; hPBMCs, 125I-MCP-1; read-out: PBMC Binding IC50
# Procedure: See also: Yoshimura et al., J. Immunol. 1990, 145, 292. The human CCR2 binding assay was established with human peripheral blood mononuclear cells (hPBMCs) using ^125I-human MCP-1 as the tracer ligand. hPBMCs were isolated from human leukopak (Biological Specialty Inc.) using a standard protocol with Ficoll-Hypaque (Mediatech Cellgro). Isolated hPBMCs were washed and diluted to 1×10^7/ml in binding buffer (RPMI-1640, 0.1% BSA, 20 mM Hepes, pH 7.4). ^125I-MCP-1 (NEN/Perk Elmer) was diluted to 0.45 nM in binding buffer. The compound was diluted in binding buffer at 3-fold the final concentrations used in the binding assay. The binding assay was performed using a 96-well filter plate (Millipore). Total ^125I-MCP-1 binding was assessed as follows: to each reaction of a total volume of 150 μl were added 5×10^5 cells, 0.15 nM […], and compound such that the final concentration ranged from 0 to 100 nM. The plate was incubated at room temperature for 30 minutes followed by three washes with RPMI-1640, 0.1% BSA, 0.4 M NaCl, 20 mM Hepes, pH 7.4 using a vacuum manifold filtration (Millipore). After washing, the plate was air-dried for 60 minutes at room temperature. This was followed by adding 25 μl of Microscint 20 into each well. The plate was sealed and counted on the Trilux for 1 minute. Non-specific binding was determined in the presence of 300 nM cold MCP-1 (PeproTech Inc.). Specific 1-MCP-1 was calculated as the difference between total and non-specific binding. All conditions were tested in duplicate.
smiles,measurement,setting,value
"CC(=O)N[C@@H]1C[C@H](NC(C)(C)C)CC[C@@H]1N1CC[C@H](Nc2nc[n+]([O-])c3ccc(C(F)(F)F)cc23)C1=O [Example 14, N-((1R,2S,5R)-5-(tert-butylamino)-2-((3S)-3-((1-oxido-6-(trifluoromethyl)-4-quinazolinyl)amino)-2-oxo-1-pyrrolidinyl)cyclohexyl)acetamide]",IC50,human CCR2 [1],19.9 nM
same,IC50,human CCR2 [2],14.9 ± 5.2 nM
